Data published in patent US10321681B2, “Plant support formulation, vehicle for the delivery and translocation of phytologically beneficial substances and compositions containing same” (NORTH-WEST UNIVERSITY, priority 2006, dated 2019).

Tested on: maize
Test: Captan with Elementol R seed treatment, dry maize field trial
Assay type: in vivo
Conditions: versus untreated seeds
Description: A genetically modified cultivar, supplied by a large seed producing company was used. One bag of treated seed was split and one portion of the seeds in the bag was treated with Captan, while another portion was treated with Captan mixed with Elementol R in the following manner. Captan is a broad-spectrum contact fungicide that has been used on corn seed since the 1950s. It is usually dyed pink and leaves a pink dust in the seed bag and planter box. It is very effective against a broad range of soil fungi. The prescribed amount of Captan was mixed directly with the seeds (Captan reference group). For the test group, seeds were mixed with a similar amount of Captan in 2% Elementol R. The seeds of both groups were briefly mixed or stirred with their individual treatment and then left to dry. Seeds were planted in blocks of 3 or 5 rows stretching the length of the maize field with untreated block s on both sides of each of the treatment groups in the North West Province, South Africa. Culturing was done according to general farming practices with no irrigation.
Plants of each of the untreated, the reference Captan group and the Elementol R/Captan group were collected by pulling up every fifth plant in a row. […]
The total plant mass, the root mass and the leaf mass of each plant were determined. […]

O=C1C2CC=CCC2C(=O)N1SC(Cl)(Cl)Cl (centres unmarked) [Captan]
root mass: only slightly enhanced root mass | leaf mass / growth of the plant leaves (fifty plants per group): did not result in any change of growth of the plant leaves
